The values that follow are results of earlier work, collected in patent US7906649B2, “Aminocyclohexanes as dipeptidyl peptidase-IV inhibitors for the treatment of diabetes” (Merck Sharp & Dohme Corp., priority 2005, dated 2011).

The test system of series [1] is GRF degradation in plasma.
Series [2] concerns cardiac allograft survival. The settings on record: rats; survival doubled from day 7.
For the next series, the system named is hematopoiesis. The following applies: mouse, cyclophosphamide-induced neutropenia.

Consider diprotin A, for which the “degradation of GRF to GRF[3-44] in plasma” value in series [1] was “prevented”.
`CC(C)N1CCC(c2ccccc2)(c2ccccc2)CC1` [Prodipine, Pro-Pro-diphenyl-phosphonate]: the cardiac allograft survival in series [2] is 14 day.
In the case of `CC(C)[C@H](N)C(=O)N1CCC[C@H]1B(O)O` [Val-Boro-Pro], the effect on hematopoiesis result in the series with hematopoiesis is given as “stimulated hematopoiesis”.
